According to patent US8623347B2 (priority 2008, dated 2014):
Where two headings read alike, the source gives them in different places.

Experiments:
[1] = test system: LCMV Armstrong strain (Arm53b); test: organism not typed; type: cell-based; settings: for EC50: Vero
LCMV = settings: cited from earlier work
LCMV S RNA and NP mRNA = type: cell-based
[2] = test system: LCMV NP and L proteins (replication and transcription of RNA analog); type: cell-based
[3] = read-out: Activity (EC50 class)
[4] = read-out: 50% effective concentration (EC50)

COc1ccc2[nH]c(-c3nc4cc(OC)ccc4[nH]3)nc2c1 [Compound 13, 5,5′-Dimethoxy-1H,1′H-[2,2′]bibenzoimidazolyl]
EC50 [1, 3]: 10 to 25 µM

c1cnc2nc(-c3nc4ncccc4[nH]3)[nH]c2c1 [Compound 20, 1H,1′H-[2,2′]Bi[imidazo[4,5 b]pyridinyl]]
EC50 [1, 3]: < 1 µM

Fc1cc2nc(-c3nc4cc(F)c(F)cc4[nH]3)[nH]c2cc1F [Compound 19, 5,6,5′,6′-Tetrafluoro-1H,1′H-[2,2′]bibenzoimidazolyl]
EC50 [1, 3]: < 1 µM

NC(=O)c1ncn([C@@H]2O[C@H](CO)[C@@H](O)[C@H]2O)n1 [ribavirin]
antiviral activity against LCMV in vitro (LCMV): limited antiviral activity

Fc1ccc2[nH]c(-c3nc4cc(F)ccc4[nH]3)nc2c1 [Compound 7, 5,5′-Difluoro-1H,1′H-[2,2′]bibenzoimidazolyl]
EC50 [1, 4]: 0.063 µM
EC50 [1, 3]: < 1 µM

COC(=O)c1ccc2[nH]c(-c3nc4cc(C(=O)OC)ccc4[nH]3)nc2c1 [Compound 15, 1H,1′H-[2,2′]Bibenzoimidazolyl-5,5′-dicarboxylic acid dimethyl ester]
EC50 [1, 3]: > 25 µM

Fc1ccc2[nH]c(-c3nc4c(F)c(F)ccc4[nH]3)nc2c1F [Compound 17, 4,5,4′,5′-Tetrafluoro-1H,1′H-[2,2′]bibenzoimidazolyl]
EC50 [1, 3]: < 1 µM

Cc1cccc2[nH]c(-c3nc4c(C)cccc4[nH]3)nc12 [Compound 10, 4,4′-Dimethyl-1H,1′H-[2,2′]bibenzoimidazolyl]
EC50 [1, 3]: > 25 µM

Cn1c(-c2nc3ccccc3n2C)nc2ccccc21 [Compound 3, 1,1′-Dimethyl-1H,1′H-[2,2′]bibenzoimidazolyl]
EC50 [1, 3]: > 25 µM

O=[N+]([O-])c1ccc2nc(-c3nc4ccc([N+](=O)[O-])cc4[nH]3)[nH]c2c1 [Compound 5, 6,6′-Dinitro-1H,1′H-[2,2′]bibenzoimidazolyl]
EC50 [1, 3]: > 25 µM

c1cc2nc(-c3nc4ccncc4[nH]3)[nH]c2cn1 [Compound 21, 3H,3′H-[2,2′]Bi[imidazo[4,5 c]pyridinyl]]
EC50 [1, 3]: 10 to 25 µM
melting point: > 300 °C

Clc1ccc2[nH]c(-c3nc4cc(Cl)ccc4[nH]3)nc2c1 [Compound 8, 5,5′-Dichloro-1H,1′H-[2,2′]bibenzoimidazolyl]
EC50 [1, 3]: 1 to 10 µM

Fc1cccc2[nH]c(-c3nc4c(F)cccc4[nH]3)nc12 [Compound 6, 4,4′-Difluoro-1H,1′H-[2,2′]bibenzoimidazolyl]
EC50 [1, 4]: 0.006 µM
EC50 [1, 3]: < 1 µM

c1ccc(-c2cccc3[nH]c(-c4nc5c(-c6ccccc6)cccc5[nH]4)nc23)cc1 [Compound 16, 4,4′-Diphenyl-1H,1′H-[2,2′]bibenzoimidazolyl]
EC50 [1, 3]: > 25 µM
melting point: 247 to 250 °C (dec.)

COc1cccc2[nH]c(-c3nc4c(OC)cccc4[nH]3)nc12 [Compound 12, 4,4′-Dimethoxy-1H,1′H-[2,2′]bibenzoimidazolyl]
EC50 [1, 3]: > 25 µM

Cc1cc2nc(-c3nc4cc(C)c(C)cc4[nH]3)[nH]c2cc1C [Compound 2, 5,6,6′,6′-Tetramethyl-1H, 1′H-[2,2′]bibenzoimidazolyl]
EC50 [1, 3]: 1 to 10 µM

Fc1cc(F)c2nc(-c3nc4c(F)cc(F)cc4[nH]3)[nH]c2c1 [Compound 18, 4,6,4′,6′-Tetrafluoro-1H,1′H-[2,2′]bibenzoimidazolyl]
EC50 [1, 3]: < 1 µM

Cc1ccc2[nH]c(-c3nc4cc(C)ccc4[nH]3)nc2c1 [Compound 11, 5,5′-Dimethyl-1H,1′H-[2,2′]bibenzoimidazolyl]
EC50 [1, 3]: > 25 µM

Brc1ccc2[nH]c(-c3nc4cc(Br)ccc4[nH]3)nc2c1 [Compound 9, 5,5′-Dibromo-1H,1′H-[2,2′]bibenzoimidazolyl]
EC50 [1, 3]: 1 to 10 µM

COC(=O)c1cccc2[nH]c(-c3nc4c(C(=O)OC)cccc4[nH]3)nc12 [Compound 14, 1H,1′H-[2,2′]Bibenzoimidazolyl-4,4′-dicarboxylic acid dimethyl ester]
EC50 [1, 3]: > 25 µM

c1ccc2[nH]c(-c3nc4ccccc4[nH]3)nc2c1 [Compound 1, 1H, 1′H-[2,2′]Bibenzoimidazolyl]
screening result in compound library screen [1]: hit
EC50 [1, 4]: 0.08 µM
EC50 [1, 3]: < 1 µM
synthesis of viral S RNA and NP mRNA relative to untreated controls (LCMV S RNA and NP mRNA): dramatically suppressed
CAT reporter activity [2]: No CAT activity was observed
CC50 (in vitro): > 25 µM
